Results published in patent US20160002247A1, “8-SUBSTITUTED IMIDAZOPYRIMIDINONE DERIVATIVE HAVING AUTOTAXIN INHIBITORY ACTIVITY” (THE UNIVERSITY OF TOKYO, priority 2013, published 2016).

The compounds below were run against T1, Human autotaxin enzyme (Homo sapiens, UniProt Q13822) (assay: Evaluation of autotaxin inhibitor, Method C (Test Example 3): 18:0 Lyso PC, choline assay, Resorufin fluorescence). Settings: Assay Method C (Test Example 3), human autotaxin, 18:0 Lyso PC substrate; read-out: Inhibitory Activity (autotaxin enzyme inhibitory activity, IC50 class).
T1 construct: purchased R&D System
Type: biochemical
In short: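 Human autotaxin in Tris-HCl pH 7.5, 150 mM NaCl, 5 mM MgCl2, 0.05% Triton X-100 reacted 2 h at room temperature with 18:0 Lyso PC (200 μM solution added). Released choline detected via choline oxidase/peroxidase/Amplex-type reagent, resorufin fluorescence (ex 531/em 598 nm); inhibition vs no-compound and no-enzyme controls, concentration-response curve.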

| Structure (SMILES) | IC50 [µM] |
| --- | --- |
| CCCCCn1c(N2CCCC[C@@H]2C(=O)NCC(=O)O)cc(=O)n2cc(-c3ccc(Cl)cc3)nc12 [Compound 638] | 0.1 to 1 |
| CCCCCn1c(N2CCN(C(=O)OC(C)(C)C)C(C(=O)O)C2)cc(=O)n2cc(-c3ccc(Cl)cc3)nc12 (stereo not drawn) [Compound 639] | 0.1 to 1 |
| CCCCCn1c(N2CCN(C(=O)OC(C)(C)C)C[C@@H]2C(=O)O)cc(=O)n2cc(-c3ccc(Cl)cc3)nc12 [Compound 640] | > 1 |
| CCCCCn1c(N2CCN(C(=O)OC(C)(C)C)C[C@H]2C(=O)O)cc(=O)n2cc(-c3ccc(Cl)cc3)nc12 [Compound 641] | > 1 |
| CCCCCn1c(N2CCC[C@H]2C(=O)NCCCN2CCCC2=O)cc(=O)n2cc(-c3ccc(Cl)cc3)nc12 [Compound 642] | 0.01 to 0.1 |
| CCCCCn1c(N2CCC[C@H]2C(=O)NCCN2CCCCC2)cc(=O)n2cc(-c3ccc(Cl)cc3)nc12 [Compound 643] | 0.1 to 1 |
| CCCCCn1c(N2CCC[C@H]2C(=O)NCCN2CCOCC2)cc(=O)n2cc(-c3ccc(Cl)cc3)nc12 [Compound 644] | 0.1 to 1 |
| CCCCCn1c(N2CCC[C@H]2C(=O)NCCN(C)C)cc(=O)n2cc(-c3ccc(Cl)cc3)nc12 [Compound 645] | 0.1 to 1 |
| CCCCCn1c(N2CCC[C@H]2C(=O)NCCCN(C)C)cc(=O)n2cc(-c3ccc(Cl)cc3)nc12 [Compound 646] | > 1 |
| CCCCCn1c(N2CCC[C@H]2C(=O)NCCN2CCCC2)cc(=O)n2cc(-c3ccc(Cl)cc3)nc12 [Compound 647] | > 1 |
| CCCCCn1c(N2CCC[C@H]2C(=O)NCCCN2CCCC2)cc(=O)n2cc(-c3ccc(Cl)cc3)nc12 [Compound 648] | > 1 |
| CCCCCn1c(N2CCC[C@H]2C(=O)NCCCN2CCN(C)CC2)cc(=O)n2cc(-c3ccc(Cl)cc3)nc12 [Compound 649] | 0.01 to 0.1 |
| CCCCCn1c(N2CCC[C@H]2C(=O)NCC2CCN(C)C2)cc(=O)n2cc(-c3ccc(Cl)cc3)nc12 (stereo partly drawn) [Compound 650] | > 1 |
| CCCCCn1c(N2CCC[C@H]2C(=O)NCCCCCCN(C)C)cc(=O)n2cc(-c3ccc(Cl)cc3)nc12 [Compound 651] | 0.01 to 0.1 |
| CCCCCn1c(N2CCC[C@H]2C(=O)NCCCCN2CCN(C)CC2)cc(=O)n2cc(-c3ccc(Cl)cc3)nc12 [Compound 652] | 0.01 to 0.1 |
| CCCCCn1c(N2CCC[C@H]2C(=O)NCCCCCN(C)C)cc(=O)n2cc(-c3ccc(Cl)cc3)nc12 [Compound 653] | 0.1 to 1 |
| CCCCCn1c(N2CCC[C@H]2C(=O)NCCCCCN2CCOCC2)cc(=O)n2cc(-c3ccc(Cl)cc3)nc12 [Compound 654] | < 0.01 |
| CCCCCn1c(N2CCC[C@H]2C(=O)NCCCN(C)C(=O)OC(C)(C)C)cc(=O)n2cc(-c3ccc(Cl)cc3)nc12 [Compound 655] | 0.1 to 1 |
| CCCCCn1c(N2CCC[C@H]2C(=O)NCCCCN(C)C)cc(=O)n2cc(-c3ccc(Cl)cc3)nc12 [Compound 656] | 0.1 to 1 |
| CCCCCn1c(N2CCC[C@H]2C(=O)NCCCCN2CC(C)OC(C)C2)cc(=O)n2cc(-c3ccc(Cl)cc3)nc12 (stereo partly drawn) [Compound 657] | < 0.01 |
| CCCCCn1c(N2CCNC(C(=O)O)C2)cc(=O)n2cc(-c3ccc(Cl)cc3)nc12 (stereo not drawn) [Compound 658] | 0.01 to 0.1 |
| CCCCCn1c(N2CCNC[C@@H]2C(=O)O)cc(=O)n2cc(-c3ccc(Cl)cc3)nc12 [Compound 659] | > 1 |

| Structure (SMILES) | IC50 [µM] |
| --- | --- |
| CCCCCn1c(N2CCNC[C@H]2C(=O)O)cc(=O)n2cc(-c3ccc(Cl)cc3)nc12 [Compound 660] | > 1 |
| CCCCCn1c(N2CCC[C@H]2C(=O)NCCCNC)cc(=O)n2cc(-c3ccc(Cl)cc3)nc12 [Compound 661] | > 1 |
| CCCCCn1c(N2CCNC(C(=O)NCCC(=O)O)C2)cc(=O)n2cc(-c3ccc(Cl)cc3)nc12 (stereo not drawn) [Compound 662] | 0.01 to 0.1 |
| CCCCCn1c(N2CCNC[C@@H]2C(=O)NCCC(=O)O)cc(=O)n2cc(-c3ccc(Cl)cc3)nc12 [Compound 663] | 0.1 to 1 |
| CCCCCn1c(N2CCNC[C@H]2C(=O)NCCC(=O)O)cc(=O)n2cc(-c3ccc(Cl)cc3)nc12 [Compound 664] | 0.01 to 0.1 |
| CCCCCn1c(N2CCNC(C(=O)NCC(=O)O)C2)cc(=O)n2cc(-c3ccc(Cl)cc3)nc12 (stereo not drawn) [Compound 665] | 0.01 to 0.1 |
| CCCCCn1c(N2CCNC[C@@H]2C(=O)NCC(=O)O)cc(=O)n2cc(-c3ccc(Cl)cc3)nc12 [Compound 666] | 0.01 to 0.1 |
| CCCCCn1c(N2CCNC[C@H]2C(=O)NCC(=O)O)cc(=O)n2cc(-c3ccc(Cl)cc3)nc12 [Compound 667] | 0.01 to 0.1 |
| CCCCCn1c(N2CCC[C@H]2C(=O)NCCOCCN2C(=O)C=CC2=O)cc(=O)n2cc(-c3ccc(Cl)cc3)nc12 [Compound 668] | 0.1 to 1 |
| CCCCCn1c(N2CC[C@@H](C(=O)O)C2)cc(=O)n2cc(-c3ccc(Cl)cc3)nc12 [Compound 669] | 0.01 to 0.1 |
| CCCCCn1c(N2CC[C@H](C(=O)O)C2)cc(=O)n2cc(-c3ccc(Cl)cc3)nc12 [Compound 670] | 0.01 to 0.1 |
| CCCCCn1c(N2CCC[C@H](C(=O)OCC)C2)cc(=O)n2cc(-c3ccc(Cl)cc3)nc12 [Compound 671] | 0.1 to 1 |
| CCCCCn1c(N2CCC[C@H]2C(=O)NC(CO)C(=O)O)cc(=O)n2cc(-c3ccc(Cl)cc3)nc12 (stereo partly drawn) [Compound 672] | 0.01 to 0.1 |
| CCCCCn1c(N2CCC[C@H]2C(=O)N2CCC[C@@H](C(=O)O)C2)cc(=O)n2cc(-c3ccc(Cl)cc3)nc12 [Compound 673] | < 0.01 |
| CCCCCn1c(N2CCC[C@H]2C(=O)NC(C)(C)C(=O)O)cc(=O)n2cc(-c3ccc(Cl)cc3)nc12 [Compound 674] | < 0.01 |
| CCCCCn1c(N2CCC[C@H]2C(=O)N[C@@H](C)C(=O)O)cc(=O)n2cc(-c3ccc(Cl)cc3)nc12 [Compound 675] | < 0.01 |
| CCCCCn1c(N2CCC[C@H]2C(=O)NC(C)(C)C(C)C(=O)O)cc(=O)n2cc(-c3ccc(Cl)cc3)nc12 (stereo partly drawn) [Compound 676] | < 0.01 |
| CCCCCn1c(N2CCC[C@H]2C(=O)N2CCC[C@H](C(=O)O)C2)cc(=O)n2cc(-c3ccc(Cl)cc3)nc12 [Compound 677] | < 0.01 |
| CCCCCn1c(N2CCC[C@H]2C(=O)N[C@H](C)C(=O)O)cc(=O)n2cc(-c3ccc(Cl)cc3)nc12 [Compound 678] | 0.01 to 0.1 |
| CCCCCn1c(N2CCC[C@H]2C(=O)NC2(C(=O)O)CC2)cc(=O)n2cc(-c3ccc(Cl)cc3)nc12 [Compound 679] | < 0.01 |
| CCCCCn1c(N2CCC[C@H]2C(=O)N2CCO[C@H](C(=O)O)C2)cc(=O)n2cc(-c3ccc(Cl)cc3)nc12 [Compound 680] | 0.01 to 0.1 |
| CCCCCn1c(N2CCC[C@H]2C(=O)N2CCO[C@@H](C(=O)O)C2)cc(=O)n2cc(-c3ccc(Cl)cc3)nc12 [Compound 681] | < 0.01 |

| Structure (SMILES) | IC50 [µM] |
| --- | --- |
| CCCCCn1c(N2CCN(C(=O)OC(C)(C)C)CC2)cc(=O)n2cc(-c3ccc(Cl)cc3)nc12 [Compound 682] | 0.1 to 1 |
| CCCCCn1c(N2CCC[C@H]2C(=O)N(C)CC(=O)OC)cc(=O)n2cc(-c3ccc(Cl)cc3)nc12 [Compound 683] | 0.01 to 0.1 |
| CCCCCn1c(N2CCC[C@H]2C(=O)N(C)CC(=O)N(C)CC(=O)OC)cc(=O)n2cc(-c3ccc(Cl)cc3)nc12 [Compound 684] | 0.01 to 0.1 |
| CCCCCn1c(N2CCC[C@H]2C(=O)NC(C)C(=O)OC)cc(=O)n2cc(-c3ccc(Cl)cc3)nc12 (stereo partly drawn) [Compound 685] | < 0.01 |
| CCCCCn1c(N2CCC[C@H]2C(=O)NC(CO)C(=O)OC)cc(=O)n2cc(-c3ccc(Cl)cc3)nc12 (stereo partly drawn) [Compound 686] | 0.01 to 0.1 |
| CCCCCn1c(N2CCC[C@H]2C(=O)N[C@@H](CO)C(=O)OC)cc(=O)n2cc(-c3ccc(Cl)cc3)nc12 [Compound 687] | 0.1 to 1 |
| CCCCCn1c(N2CCC[C@H]2C(=O)N2CCC[C@@H](C(=O)OCC)C2)cc(=O)n2cc(-c3ccc(Cl)cc3)nc12 [Compound 688] | 0.01 to 0.1 |
| CCCCCn1c(N2CCC[C@H]2C(=O)NC(C)(C)C(=O)OC)cc(=O)n2cc(-c3ccc(Cl)cc3)nc12 [Compound 689] | < 0.01 |
| CCCCCn1c(N2CCC[C@H]2C(=O)N[C@@H](C)C(=O)OC)cc(=O)n2cc(-c3ccc(Cl)cc3)nc12 [Compound 690] | 0.01 to 0.1 |
| CCCCCn1c(N2CCC[C@H]2C(=O)N2CCC[C@H](C(=O)OCC)C2)cc(=O)n2cc(-c3ccc(Cl)cc3)nc12 [Compound 691] | 0.1 to 1 |
| CCCCCn1c(N2CCC[C@H]2C(=O)N[C@H](C)C(=O)OC)cc(=O)n2cc(-c3ccc(Cl)cc3)nc12 [Compound 692] | 0.01 to 0.1 |
| CCCCCn1c(N2CCC[C@H]2C(=O)NC2(C(=O)OC)CC2)cc(=O)n2cc(-c3ccc(Cl)cc3)nc12 [Compound 693] | 0.01 to 0.1 |
| CCCCCn1c(N2CCC[C@H]2C(=O)NC2CCCCNC2=O)cc(=O)n2cc(-c3ccc(Cl)cc3)nc12 (stereo partly drawn) [Compound 694] | 0.01 to 0.1 |
| CCCCCn1c(N2CCC[C@H]2C(=O)N2CCCC(C(N)=O)C2)cc(=O)n2cc(-c3ccc(Cl)cc3)nc12 (stereo partly drawn) [Compound 695] | 0.1 to 1 |
| CCCCCn1c(N2CCC[C@H]2C(=O)N2CCCC(C(=O)OCC)C2)cc(=O)n2cc(-c3ccc(Cl)cc3)nc12 (stereo partly drawn) [Compound 696] | 0.1 to 1 |
| CCCCCn1c(N2CCC[C@H]2C(=O)N2CCNC(=O)C2)cc(=O)n2cc(-c3ccc(Cl)cc3)nc12 [Compound 697] | 0.01 to 0.1 |
| CCCCCn1c(N2CCC[C@H]2C(=O)N2CCNC(=O)CC2)cc(=O)n2cc(-c3ccc(Cl)cc3)nc12 [Compound 698] | 0.01 to 0.1 |
| CCCCCn1c(N2CCC[C@H]2C(=O)NCC(=O)N(C)C)cc(=O)n2cc(-c3ccc(Cl)cc3)nc12 [Compound 699] | 0.1 to 1 |
| CCCCCn1c(N2CCC[C@H]2C(=O)NC2CCNC2=O)cc(=O)n2cc(-c3ccc(Cl)cc3)nc12 (stereo partly drawn) [Compound 700] | 0.01 to 0.1 |
| CCCCCn1c(N2CCC[C@H]2C(=O)N2CCC(C(N)=O)C2)cc(=O)n2cc(-c3ccc(Cl)cc3)nc12 (stereo partly drawn) [Compound 701] | 0.1 to 1 |
| CCCCCn1c(N2CCC[C@H]2C(=O)N[C@@H]2CCNC2=O)cc(=O)n2cc(-c3ccc(Cl)cc3)nc12 [Compound 702] | 0.01 to 0.1 |
| CCCCCn1c(N2CCC[C@H]2C(=O)N(C)CC(=O)N(C)C)cc(=O)n2cc(-c3ccc(Cl)cc3)nc12 [Compound 703] | 0.01 to 0.1 |
